From US9974727B2, “Hair growth and hair restoration material” (INSTITUTE OF RHEOLOGICAL FUNCTION OF FOOD CO., LTD., priority 2011, dated 2018)

Experiments:
Format in all cases: in vivo
C3H male mice = assay: Hair growth test on shaved backs of mice; settings: for Hair growth state 2 weeks after application: 20 μL on shaved back, mice with hair growth / mice
Protocol: The FCG obtained in Production Example 1, the SCG obtained in Production Example 2, the CSG obtained in Production Example 3, and the RSG obtained in Production Example 4 were each dissolved, in 70% by mass ethanol water, and the following solutions were prepared:
Furthermore, commercially available cholesterol (hereinafter, abbreviated as “Cho”) was dissolved in 70% by mass ethanol water to prepare a Cho 10 pg/mL solution.
The body hair on the back of 8 to 9-week-old C3H male mice was shaved using an electric clippers for animal use (“Thrive clipper, Model 600AD” manufactured by Daito Electric Company) together with a rotary shaver (National ES611).
Each of the sample solutions (20 μL) was applied in four portions to the skin in central parts of the shaved backs of mice while repeating air drying. The application was conducted 24 hours after shaving.
The hair growth effect was evaluated 2 weeks after the application of the sample solution on the basis of observation with the naked eye and photographs taken by a digital camera. Furthermore, as controls, mice applied with 70% by mass ethanol water and mice not applied with a sample solution were used.

[1] = system: bFGF (basic fibroblast growth factor); assay: Preliminary test for hair growth using mice, bFGF immunostaining of skin
Protocol: (§1) A 70% by mass aqueous ethanol solution containing FCG obtained in Production Example 1 at a concentration of 10 pg/mL (sample solution) was prepared.
(§2) The sample solution (20 μL) was applied onto the shaved back skin of four 9-week-old ICR male mice, and skin was collected after 3 hours and after 6 hours.
(§3) The skin was subjected to immunostaining for bFGF (basic fibroblast growth factor), Hsp70 (heat shock protein 70), and VEGF (vascular endothelial cell growth factor) by the fluorescent antibody technique and HE staining (hematoxylin-eosin staining), and samples of 14 μm-thick cryostat sections were prepared.

[2] = system: Hsp70 (heat shock protein 70); assay: Preliminary test for hair growth using mice, Hsp70 immunostaining of skin; settings: 10 pg/mL, 3 hours after application; hair papilla cells of hair root in telogen
Protocol: as §1, §2, §3

[3] = system: shaved back skin of ICR male mice; assay: Preliminary test for hair growth using mice, HE staining of skin; settings: 10 pg/mL, 20 μL
Protocol: as §1, §2, §3

[4] = system: VEGF (vascular endothelial cell growth factor); assay: Preliminary test for hair growth using mice, VEGF immunostaining of skin; settings: 10 pg/mL, 3 hours after application
Protocol: as §1, §2, §3

head hair = assay: Hair growth effect on human head hair; settings: person
Protocol: (§4) The hair growth effect of FCG on head hair of a person was examined.
After hair was thoroughly washed and dried completely with a dryer, about 3.5 mL of a 70% by mass aqueous ethanol solution (sample solution) containing FCG at a concentration of 10 pg/mL was evenly applied, to the scalp once a day.
Before use of the sample solution and 4 months after start of use, photographs were taken by a digital camera from the forehead and the top of head.
as §4
After hair was thoroughly washed and naturally dried completely, about 3.5 mL of a 70% by mass aqueous ethanol solution (sample solution) containing FCG at a concentration of 10 pg/mL was evenly applied to the scalp once a day.
On the date of start of use of the sample solution and 5 months after start of use, photographs of the forehead and the top of head were taken by a digital camera.

[5] = C3H mice, 2 weeks after application
[6] = 10 pg/mL, 6 hours after application
[7] = 10 pg/mL, about 3.5 mL once a day, 5 months after start of use

Structure (SMILES) | Hair growth state 2 weeks after application (C3H male mice; 10 pg/mL in 70% ethanol water) | Hair growth action (summary of Table 1) (C3H male mice; [5]) | bFGF expression (immunostaining) ([1]; 10 pg/mL, 3 hours after application, hair follicle, epidermis, bulge region, external root sheath, erector pili muscles) | bFGF expression in erector pili muscles (immunostaining) [1, 6] | bFGF expression in hair papilla cells (immunostaining) [1, 6] | bFGF expression, conclusion ([1]; epidermis, external root sheath, bulge region, hair matrix) | Hsp70 expression (immunostaining) [2] | HE staining, hair root and hair bulb ([3]; 3 hours after application, one of two mice) | HE staining, hair root ([3]; 6 hours after application) | Hair growth state 2 weeks after application (C3H male mice; 1 pg/mL in 70% ethanol water) | Hair growth state 2 weeks after application (C3H male mice; 100 pg/mL in 70% ethanol water) | Death of mice during hair growth test (C3H male mice; 100 pg/mL, 2 weeks after application) | Hair growth action at 1 pg/mL compared with 10 pg/mL (C3H male mice; [5]) | VEGF expression (immunostaining) [4] | Hair growth on forehead and top of head (head hair; 10 pg/mL, about 3.5 mL once a day, 4 months after start of use) | Hair growth on forehead (head hair; [7]) | Hair growth on top of head (head hair; [7]) | Side effects (head hair; one year after start of use)
CC(C)CCC[C@@H](C)[C@H]1CC[C@H]2[C@@H]3CC=C4C[C@@H](O)CC[C@]4(C)[C@H]3CC[C@]12C [Cho, cholesterol, reference compound] | 4/8 | weak | – | – | – | – | – | – | – | – | – | – | – | – | – | – | – | –
CC(C)CCC[C@@H](C)[C@H]1CC[C@H]2[C@@H]3CC=C4C[C@@H](O[C@@H]5O[C@H](CO)[C@@H](O)[C@H](O)[C@H]5O)CC[C@]4(C)[C@H]3CC[C@]12C [FCG, cholesteryl glucopyranoside] | 4/8 | – | Strong expression of bFGF was detected | reduced to moderate | became weak | expression of bFGF is induced | Weak to moderate expression of Hsp70 was detected | local extension of the hair root and enlargement of the hair bulb were observed | Most of the hair roots extended to the subcutaneous tissue | 6/8 | 5/7 | one mouse died | higher | VEGF positive reaction was found in hair papilla cells in the hair matrix | a large amount of hair growth was observed | hair growth was observed | a good amount of hair growth was observed | side effects are not recognized
CC(C)CCC[C@@H](C)[C@H]1CC[C@H]2[C@@H]3CC=C4C[C@@H](O[C@@H]5O[C@H](CO)[C@@H](O)[C@H](O)[C@H]5O)CC[C@]4(C)[C@H]3CC[C@]12C [SCG, cholesteryl-β-D-glucopyranoside] | ⅝ | same hair growth action as that of the cholesteryl glucopyranoside derived from feathers (FCG) | – | – | – | – | – | – | – | 6/8 | ⅜ | – | – | – | – | – | – | –
